In the NIST ThermoML archive (doi:10.1016/j.fluid.2005.01.001):

Conditions: Liquid

FCC(F)(F)F [1,1,1,2-tetrafluoroethane]
Conditions | vapor or sublimation pressure [kPa]
277.22 K | 339.5
279.24 K | 364
281.25 K | 389.7
283.24 K | 416.7
285.26 K | 445.4
287.27 K | 475.4
289.27 K | 506.9
291.29 K | 539.9
293.31 K | 575.1
295.3 K | 610.8
297.32 K | 649.3
299.21 K | 685.5
299.31 K | 688.7
299.34 K | 689.4
301.19 K | 726.7
301.3 K | 730
303.06 K | 767
303.19 K | 769.8
303.31 K | 773.5
305.33 K | 819.1
307.34 K | 866.6
309.35 K | 916
311.35 K | 967.3
313.31 K | 1019.3
315.36 K | 1076.9
317.32 K | 1133
319.38 K | 1195.5
321.34 K | 1256.1
329.37 K | 1532.3
335.39 K | 1767.4
337.41 K | 1851.9
339.41 K | 1939.2
341.43 K | 2029.5
343.43 K | 2123
347.44 K | 2319.8
349.46 K | 2419.4
351.46 K | 2530.3
353.48 K | 2641.1
355.48 K | 2755.4
360.48 K | 3054.3

COC [dimethyl ether]
Conditions | vapor or sublimation pressure [kPa]
278.25 K | 317.6
283.2 K | 373.6
288.19 K | 437.4
293.2 K | 509.4
298.19 K | 589.6
303.18 K | 679.2
303.19 K | 678.1
308.19 K | 778.7
313.2 K | 888.8
318.19 K | 1009.5
323.28 K | 1144.5
323.37 K | 1146.2
328.25 K | 1289.2
333.23 K | 1447.2
338.23 K | 1619.9
343.18 K | 1805.3
343.41 K | 1814.4
347.42 K | 1976.8
348.17 K | 2007.3
351.44 K | 2149.6
353.1 K | 2224.5
353.45 K | 2240
355.08 K | 2315.6
355.46 K | 2333.3
357.49 K | 2429.5
359.49 K | 2528.5
360.52 K | 2579.1
